BigSolDB 2.1

CC(=O)NC1CCSC1=O (stereo not given)
solubility (mole fraction)
Conditions	278.15 K	283.15 K	288.15 K	293.15 K	298.15 K	303.15 K	308.15 K	313.15 K	318.15 K	323.15 K
in 2-butoxyethanol	0.0606	0.0701	0.0776	0.0895	0.102	0.116	0.132	0.15	0.175	0.199
in 2-ethoxyethanol	0.0952	0.108	0.121	0.141	0.158	0.176	0.199	0.223	0.248	0.278
in 2-methoxyethanol	0.132	0.15	0.169	0.189	0.21	0.233	0.255	0.279	0.31	0.344
in 2-propoxyethanol	0.0753	0.0874	0.0976	0.11	0.123	0.138	0.158	0.179	0.203	0.23
in ethanol	0.0355	0.0439	0.055	0.0699	0.0866	0.107	0.132	0.164	0.201	0.243
in ethyl acetate	0.0168	0.0199	0.0235	0.0283	0.0325	0.0388	0.0455	0.0546	0.0649	0.0772
in methanol	0.0713	0.0887	0.111	0.137	0.165	0.192	0.222	0.253	0.288	0.321
in methyl acetate	0.0229	0.0271	0.033	0.0401	0.0478	0.0559	0.0673	0.081	0.0965	0.119
in n-butanol	0.0244	0.0301	0.0388	0.047	0.0574	0.0692	0.0846	0.104	0.128	0.159
in n-butyl acetate	0.0119	0.0141	0.0169	0.0194	0.0228	0.0263	0.0307	0.0364	0.0411	0.0496
in n-pentanol	0.0232	0.0294	0.0362	0.0429	0.0532	0.0646	0.0769	0.093	0.114	0.14
in n-propanol	0.0282	0.0343	0.0456	0.0553	0.0678	0.0839	0.104	0.129	0.159	0.197
in n-propyl acetate	0.0131	0.0155	0.0187	0.0217	0.0257	0.0296	0.0351	0.0411	0.0486	0.0575
